The test system of experiment [1] is Streptococcus pyogenes. The experiment is described as follows: Antimicrobial activity against Streptococcus pyogenes after 24 hrs by broth microdilution method. The format is functional, organism-based. On the technique in general: Broth dilution looks for growth in wells or tubes with falling amounts of substance.
Experiment [2] concerns Streptococcus pyogenes. Kind of experiment: Antimicrobial activity against Streptococcus pyogenes at 200 ug/mL after 24 hrs by disk diffusion method. The format is functional. Conditions: read-out: IZ. (A growth-free zone around the sample is the usual read-out of agar diffusion tests.)
For experiment [3], the system named is Escherichia coli. Kind of experiment: Antimicrobial activity against Escherichia coli at 200 ug/mL after 24 hrs by disk diffusion method. The format is functional. Conditions: read-out: IZ.
Experiment [4] deals with Staphylococcus aureus. The experiment is described as follows: Antimicrobial activity against Staphylococcus aureus after 24 hrs by broth microdilution method. The format is functional, organism-based.
Experiment [5] concerns Escherichia coli. Kind of experiment: Antimicrobial activity against Escherichia coli after 24 hrs by broth microdilution method. The format is functional, organism-based.
Experiment [6] deals with Salmonella typhimurium. Kind of experiment: Antimicrobial activity against Salmonella Typhimurium after 24 hrs by broth microdilution method. Conditions: Salmonella enterica. The format is functional, organism-based, Salmonella enterica subsp. enterica serovar Typhimurium.
Experiment [7] deals with Staphylococcus aureus. The experiment is described as follows: Antimicrobial activity against Staphylococcus aureus at 200 ug/mL after 24 hrs by disk diffusion method. The following applies: read-out: IZ. The format is functional.
Experiment [8] concerns Salmonella typhimurium. Kind of experiment: Antimicrobial activity against Salmonella Typhimurium at 200 ug/mL after 24 hrs by disk diffusion method. The format is functional, Salmonella enterica subsp. enterica serovar Typhimurium. Conditions: Salmonella enterica, read-out: IZ.

What is called IC50 is the concentration that inhibits the measured activity by half. The MIC is the lowest concentration found to suppress growth. Higher therefore signals a less susceptible organism.

Converted amounts (≈) assume the structure as drawn.

Turning to `CC1(C)S[C@@H]2[C@H](NC(=O)[C@H](N)c3ccc(O)cc3)C(=O)N2[C@H]1C(=O)O` [AMOXICILLIN], the IC50 in the experiment with Streptococcus pyogenes [1] turned out to be 1.8 µg/mL (≈ 4.93 µM); in the experiment on Staphylococcus aureus [4], 1.82 µg/mL (≈ 4.98 µM); with Escherichia coli [5], 1.9 µg/mL (≈ 5.2 µM); with Salmonella typhimurium [6] it was 1.85 µg/mL (≈ 5.06 µM). Moreover, the MIC against Streptococcus pyogenes [1], with Staphylococcus aureus [4], against Escherichia coli [5] and against Salmonella typhimurium [6] was 3.12 µg/mL (≈ 8.54 µM) each time. The zone of inhibition at 200 µg/mL with Streptococcus pyogenes [2] is 18.2 mm; in the experiment with Escherichia coli [3] it was 20 mm; with Staphylococcus aureus [7], 17 mm; with Salmonella typhimurium [8] it was 17.2 mm.

With `CC(C)CCC[C@@H](C)[C@H]1CC[C@H]2[C@@H]3CC=C4C/C(=N/Nc5nc6nc7ccccc7nc6s5)CC[C@]4(C)[C@H]3CC[C@]12C`, the IC50 in the experiment with Streptococcus pyogenes [1] was 0.52 µg/mL (≈ 0.891 µM); with Staphylococcus aureus [4], 0.54 µg/mL (≈ 0.925 µM); with Escherichia coli [5], 0.24 µg/mL (≈ 0.411 µM); in the experiment with Salmonella typhimurium [6], 0.28 µg/mL (≈ 0.48 µM). Moreover, the MIC is 0.78 µg/mL (≈ 1.34 µM) with Streptococcus pyogenes [1], 0.78 µg/mL (≈ 1.34 µM) in the experiment on Staphylococcus aureus [4], 0.39 µg/mL (≈ 0.668 µM) against Escherichia coli [5] and 0.39 µg/mL (≈ 0.668 µM) against Salmonella typhimurium [6]. The zone of inhibition at 200 µg/mL in the experiment with Streptococcus pyogenes [2] was found to be 23.2 mm; in the experiment on Escherichia coli [3], 21.4 mm; in the experiment on Staphylococcus aureus [7], 21.2 mm; in the experiment on Salmonella typhimurium [8] it was 20.4 mm.

Take `CC(C)CCC[C@@H](C)[C@H]1CC[C@H]2[C@@H]3CC=C4C/C(=N/NC(N)=O)CC[C@]4(C)[C@H]3CC[C@]12C`: the IC50 in the experiment with Streptococcus pyogenes [1] is 3.68 µg/mL (≈ 8.33 µM); in the experiment with Staphylococcus aureus [4] it was 3.65 µg/mL (≈ 8.26 µM); with Escherichia coli [5] it was 1.88 µg/mL (≈ 4.26 µM); with Salmonella typhimurium [6] it was 1.94 µg/mL (≈ 4.39 µM). Also, the MIC was determined as 6.25 µg/mL (≈ 14.1 µM) with Streptococcus pyogenes [1], 6.25 µg/mL (≈ 14.1 µM) against Staphylococcus aureus [4], 3.12 µg/mL (≈ 7.06 µM) against Escherichia coli [5] and 3.12 µg/mL (≈ 7.06 µM) against Salmonella typhimurium [6]. Moreover, the zone of inhibition at 200 µg/mL in the experiment with Streptococcus pyogenes [2] turned out to be 13.4 mm; in the experiment with Escherichia coli [3], 14.2 mm; in the experiment on Staphylococcus aureus [7], 14.6 mm; in the experiment with Salmonella typhimurium [8], 15.5 mm.

For `CC(C)CCC[C@@H](C)[C@H]1CC[C@H]2[C@@H]3CC=C4C[C@@H](O)CC[C@]4(C)[C@H]3CC[C@]12C` [CHOLESTEROL], the zone of inhibition at 200 µg/mL in the experiment with Streptococcus pyogenes [2] was 7.8 mm; with Escherichia coli [3], 9 mm; in the experiment on Staphylococcus aureus [7], 9.2 mm; in the experiment on Salmonella typhimurium [8] it was 8.2 mm.

Regarding `CC(C)CCC[C@@H](C)[C@H]1CC[C@H]2[C@@H]3CC=C4C/C(=N/Nc5nc6nc7ccccc7nc6o5)CC[C@]4(C)[C@H]3CC[C@]12C`, the IC50 in the experiment with Streptococcus pyogenes [1] is 0.54 µg/mL (≈ 0.951 µM); in the experiment with Staphylococcus aureus [4] it was 0.48 µg/mL (≈ 0.845 µM); with Escherichia coli [5], 0.26 µg/mL (≈ 0.458 µM); in the experiment with Salmonella typhimurium [6] it was 0.48 µg/mL (≈ 0.845 µM). Further, the MIC against Streptococcus pyogenes [1] amounted to 0.78 µg/mL (≈ 1.37 µM); against Staphylococcus aureus [4], 0.78 µg/mL (≈ 1.37 µM); in the experiment on Escherichia coli [5], 0.39 µg/mL (≈ 0.687 µM); in the experiment on Salmonella typhimurium [6], 0.78 µg/mL (≈ 1.37 µM). The zone of inhibition at 200 µg/mL in the experiment with Streptococcus pyogenes [2] worked out at 23.4 mm; in the experiment on Escherichia coli [3], 23.6 mm; in the experiment on Staphylococcus aureus [7] it was 22.5 mm; in the experiment on Salmonella typhimurium [8], 24.5 mm.

For `CC(C)CCC[C@@H](C)[C@H]1CC[C@H]2[C@@H]3CC=C4C/C(=N/NC(N)=S)CC[C@]4(C)[C@H]3CC[C@]12C`, the IC50 worked out at 3.66 µg/mL (≈ 8 µM) in the experiment with Streptococcus pyogenes [1], 3.68 µg/mL (≈ 8.04 µM) in the experiment on Staphylococcus aureus [4], 3.68 µg/mL (≈ 8.04 µM) in the experiment on Escherichia coli [5] and 3.72 µg/mL (≈ 8.13 µM) in the experiment with Salmonella typhimurium [6]. The MIC against Streptococcus pyogenes [1], with Staphylococcus aureus [4], against Escherichia coli [5] and against Salmonella typhimurium [6] was 6.25 µg/mL (≈ 13.7 µM) throughout. The zone of inhibition at 200 µg/mL with Streptococcus pyogenes [2] was found to be 13.5 mm; in the experiment with Escherichia coli [3], 15.5 mm; in the experiment on Staphylococcus aureus [7], 15.2 mm; with Salmonella typhimurium [8], 14.5 mm.

Source of the values: ChEMBL document CHEMBL1152854, “Synthesis, characterization and in vitro antibacterial activity of new steroidal 5-en-3-oxazolo and thiazoloquinoxaline” (Eur J Med Chem, 2008).
